Source: BigSolDB 2.1

## O=C1CCC(=O)O1
In THF, 283.15 K
  solubility (mole fraction): 0.071
In THF, 288.15 K
  solubility (mole fraction): 0.077
In THF, 293.15 K
  solubility (mole fraction): 0.085
In THF, 298.15 K
  solubility (mole fraction): 0.093
In THF, 303.15 K
  solubility (mole fraction): 0.104
In THF, 308.15 K
  solubility (mole fraction): 0.115
In THF, 313.15 K
  solubility (mole fraction): 0.129
In THF, 318.15 K
  solubility (mole fraction): 0.145
In THF, 323.15 K
  solubility (mole fraction): 0.164
In gamma-butyrolactone, 283.15 K
  solubility (mole fraction): 0.197
In gamma-butyrolactone, 288.15 K
  solubility (mole fraction): 0.218
In gamma-butyrolactone, 293.15 K
  solubility (mole fraction): 0.239
In gamma-butyrolactone, 298.15 K
  solubility (mole fraction): 0.261
In gamma-butyrolactone, 303.15 K
  solubility (mole fraction): 0.283
In gamma-butyrolactone, 308.15 K
  solubility (mole fraction): 0.307
In gamma-butyrolactone, 313.15 K
  solubility (mole fraction): 0.331
In gamma-butyrolactone, 318.15 K
  solubility (mole fraction): 0.354
In gamma-butyrolactone, 323.15 K
  solubility (mole fraction): 0.378
